{"source": "patent US20250236616A1", "about": "“IMMUNOMODULATING AZALIDES” (Zoetis Services LLC, priority 2021, published 2025)", "key": {"[1]": {"tested_on": "E. coli", "test": "MIC, E. coli", "format": "cell-based", "settings": "Escherichia coli", "from_the_text": "Primary screening of the compounds of the invention included the evaluation of antibacterial activity of analogs through determination of microbial inhibition concentration (MIC) as per CLSI guidelines. The screening panel included the relevant BRD pathogens: 1) M. haemolytica (e.g., 12726, 46571 and 49023, all AHDRCC; and 33396 (ATCC)); and 2) P. multocida (e.g., 34135 and 46572 (both AHDRCC) and 43137 (ATCC)). In some instances, H. somni (A700025K) pathogens were also included in the screening panel. The AHDRCC strains originated from the Zoetis BRD/SRD surveillance program and refer to the Animal Health Development and Research Culture Collection. In addition, the screen assessed S. aureus (29213 ATCC) as a representative Gram-positive isolate, E.faecalis (19433 ATCC) as a commensal gram-positive gastrointestinal bacterium and E. coli (100, 3110 and 25922 (ATCC)) for the evaluation of efflux potential. The screening panel BRD pathogens were assessed in determining antibacterial activity of the Formula (1) compounds.\nAll relevant BRD pathogens were initially screened at a top concentration of 64 μg/mL of a Formula (1) compound in an eleven-point dilution series. […] If an Example was purified further, the MICs moved […] essentially two dilutions across all strains tested in the screening panel.\nIn-Vitro MIC Model Compounds were analyzed for antibacterial activity against a panel of animal health specific gram-positive and gram-negative clinical strains by diluting compounds in DMSO to an appropriate stock concentration to determine the Minimal Inhibitory Concentration (MIC) via a semi-automated broth micro-dilution method (CLSI reference method) with QC strains and anti-microbial agent(s). Specifically, bacteria were grown overnight on TSA w/5% sheep blood agar plates and diluted in saline buffer to a McFarland Standard 0.5, then further diluted in cation-ion adjusted Mueller Hinton Broth to a final concentration of approximately 5×10^5 CFU/mL. 100 μL of inoculated media was added to 96-well plate(s) with 3 μL of serially diluted compound in each row. Depending on strain (see CLSI reference method), bacteria were incubated 18-22 hours at 35-37° C. in ambient air, with 5% CO2 or anaerobically (up to 48 hours)."}, "[2]": {"tested_on": "P. multocida", "test": "Murine P. multocida intranasal challenge study, treatment 18 hours after challenge, survival", "format": "in vivo, mice", "settings": "subcutaneous 18 hours after challenge (5×10^3 CFU/mouse); tulathromycin 16 mg/kg, M9 32 mg/kg, ceftiofur 9 mg/kg", "description": "In one murine P. multocida intranasal challenge study, mice were administered tulathromycin (16 mg/kg; T02), M9 (32 mg/kg; T03), or ceftiofur (9 mg/kg; T04) by subcutaneous injection 18 hours after bacterial challenge (5×10^3 CFU/mouse) for lung tissue RNA sequence analysis. Survival at Day 7 was about 80%, 50%, and 90% for T02, T03, and T04, respectively, compared to placebo at 0%. Differential gene expression from total lung tissue RNA sequence analysis indicated at least 226 unique genes were up or down regulated (with significance) for T03. Output from ingenuity pathway analysis of these unique genes predicted major upstream regulators of the involved pathways. Data was analyzed based on the number of genes being modulated in the same direction that were associated with a given upstream regulator. An activation z-score of 2 or greater is considered significant and the direction change is indicated by + (activated) or -(inhibited). The top 5 pathways included: IL-9 signaling, glucocorticoid receptor signaling, prolactin signaling, JAK STAT signaling, and IL-17 signaling. The top 6 upstream regulators (activation z-score) included: lipopolysaccharide (−6.725), TNF (−4.669), IFNγ (−5.759), IL-1β (−5.947), STAT1 (−2.787), and poly rl: rC-RNA (−5.289). Even though this study was run in the murine model, the top upstream regulators identified as being modulated by M9 include an almost ubiquitous overlap with the pathways identified in the natural disease study as being key mediators in BRD, and therefore is modulating highly relevant pathways in BRD pathobiology."}, "[3]": {"tested_on": "M. haemolytica (strain: OSU-012103-BHI)", "test": "Bovine M. haemolytica intratracheal lung challenge model, mortality", "format": "in vivo", "settings": "M. haemolytica challenge Day 0; subcutaneous Day -1; M9 10 mg/kg, Draxxin 2.5 mg/kg; 6 animals", "description": "To evaluate immunomodulation effects and potential biomarkers, a bovine M. haemolytica (strain: OSU-012103-BHI) intratracheal lung challenge model study was completed utilizing M9 treatment in the presence and absence of bacterial challenge and a Draxxin® comparator. […] Animals were administered 0.05 mL/kg saline (T01), 10 mg/kg M9 (T02); Draxxin 2.5 mg/kg (T03) and 10 mg/kg M9 (T04) by subcutaneous injection on Day-1. Dose was based on body weight. Animals were challenge on Day 0 with the exception of T04. Blood was collected longitudinally throughout the study for biomarker evaluation panel (e.g., IL-6 and CD163) including two baseline samples prior to treatment. FIG. 4A depicts the area under the curve concentrations for IL-6 protein for individual animals against percent lung lesion scores and FIG. 4B depicts the CD163 fold change area under the curve for individual animals against percent lung lesion scores. Data is represented as percent lung lesion scores against the area under the curve (AUC) for IL-6 protein (immunoassay expressed in pg/mL) and CD163 (flow cytometric mean fluorescent intensity (MFI) in fold change from baseline). In both assays, a 2-fold change is typically considered to be relevant."}, "[4]": {"tested_on": "IL-6", "test": "IL-6 biomarker in bovine M. haemolytica challenge", "format": "in vivo", "description": "Cytokine Detection—An MSD U-Plex cytokine assay was developed following the MSD U-Plex protocol guide and included biotinylated capture antibodies against: bovine Interleukin (IL)-1β (Biorad), bovine IL-6 (R&D Systems) and bovine tumor necrosis factor (TNF)-α (R&D Systems). The anti-IL-1β antibody was biotinylated using EZ-Link Sulfo-NHS-Biotin (Thermo Scientific) at a challenge ratio of 1:20 according to manufacturer instructions. Assay calibrators (Kingfisher) were diluted to a concentration of […] in control lithium heparin plasma, followed by 4-fold serial dilutions into plasma. The detection antibodies were sulfo-tagged following the MSD quick guide conjugation protocol using a challenge ratio of 1:20. Antibodies were used at the following concentrations: anti-IL-1β at 1 μg/mL, anti-IL-6 at 1 μg/mL and anti-TNF-α at 0.5 μg/mL. Cytokines were quantified according to manufacturer's instructions using a chemiluminescent readout. In brief, 0.5 mL of all biotinylated antibodies were diluted to 10 μg/mL with Diluent 100 and paired to their respective linkers by adding 750 μL of supplied Linker solution and incubated for 30 minutes followed by addition of Stop solution for another 30 minutes. […] Plates were washed a further three times before addition of 150 μL 2X Read buffer and read immediately on the SI6000 instrument (MSD). […]"}}, "data": [{"smiles": "CCCNC[C@]1(O)[C@H](C)O[C@@H](O[C@H]2[C@H](C)[C@@H](O[C@@H]3O[C@H](C)C[C@H](N(C)C)[C@H]3O)[C@](C)(O)C[C@@H](C)CN[C@H](C)[C@@H](O)[C@](C)(O)[C@@H](CC)OC(=O)[C@@H]2C)C[C@@]1(C)OC", "note": "[tulathromycin, (2R,3S,4R,5R,8R,10R,11R,12S,13S,14R)-11-(((2S,3R,4S,6R)-4-(dimethylamino)-3-hydroxy-6-methyltetrahydro-2H-pyran-2-yl)oxy)-2-ethyl-3,4,10-trihydroxy-13-(((2R,4R,5S,6S)-5-hydroxy-4-methoxy-4,6-dimethyl-5-((propylamino)methyl)tetrahydro-2H-pyran-2-yl)oxy)-3,5,8, 10, 12, 14-hexamethyl-1-oxa-6-azacyclopentadecan-15-one]", "values": [{"measurement": "MIC", "setting": "[1]; E. coli 25922", "result": 2, "unit": "µg/mL"}, {"measurement": "MIC", "setting": "[1]; E. coli W3110", "result": 8, "unit": "µg/mL"}, {"measurement": "Survival at Day 7", "setting": "[2]", "result": "about 80%"}, {"measurement": "Mortality", "setting": "[3]", "result": "0/6"}, {"measurement": "IL-6 levels", "setting": "[4]", "result": "significantly reduced IL-6 levels"}]}]}
